This data set has as its system male Swiss-Webster mice. The data set can be described thus: intraperitoneal toxicity observation in mice. It counts as in vivo. The following applies: 50 mg./kg. intraperitoneal in 10% w/v dimethylsulphoxide in saline; observed four hours and checked 24 hours after dosing.

Turning to `CNC(=C[N+](=O)[O-])NCCCCc1csc(N=C(N)NCC(F)(F)F)n1` [Example 9], the toxic symptoms entry is on record as “No toxic symptoms”.

On to `CNC(=NS(C)(=O)=O)NCCCCc1csc(NC(N)=NCC(F)(F)F)n1` [Example 11, 2-[2-(2,2,2-trifluoroethyl)guanidino]-4-[4-(2-methylsulphonyl-3-methylguanidino)butyl]thiazole], for which the toxic symptoms entry was “No toxic symptoms”.

The record behind these values is US4362728A, “Haloguanidine compounds, pharmaceutical compositions and methods of use” (ICI Americas Inc., priority 1979, dated 1982).
